Laboratory results as given in ChEMBL document CHEMBL1201862, “PubChem BioAssay data set” (2004).
Activity calls are given as the source filed them.

Key:
[1] = microbe, parasite or virus in culture; assay type: functional; settings: Mycobacterium tuberculosis
[2] = inhibition of ADAM10 peptide cleavage – biochemical, FRET peptide substrate, recombinant human ADAM10, selectivity assay for ADAM17 exosite inhibitor project, dose response (AID 743259);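 note: ADAM10 enzyme cleaving a FRET peptide substrate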
[3] = molecular target: Disintegrin and metalloproteinase domain-containing protein 17 (Homo sapiens, UniProt P78536); test: exosite inhibitors of ADAM17, dose response, biochemical (AID 743260)
Protein Wnt-3a = Protein Wnt-3a (Mus musculus, UniProt P27467); test: SAR analysis of small molecule antagonists of Gli-SUFU in a Wnt3a luminescent reporter assay.; assay type: functional
cells [4] = test: cells
cells [5] = assay type: functional, cell-based; settings: HEK-CNG
Galanin receptor type 3 = molecular target: T1, Galanin receptor type 3 (Homo sapiens, UniProt O60755); test: Fluorescence-based cell-based primary high throughput dose response assay to identify antagonists of the Galanin Receptor 3 (GalR3).; assay type: functional
T1 sequence (O60755 whole entry): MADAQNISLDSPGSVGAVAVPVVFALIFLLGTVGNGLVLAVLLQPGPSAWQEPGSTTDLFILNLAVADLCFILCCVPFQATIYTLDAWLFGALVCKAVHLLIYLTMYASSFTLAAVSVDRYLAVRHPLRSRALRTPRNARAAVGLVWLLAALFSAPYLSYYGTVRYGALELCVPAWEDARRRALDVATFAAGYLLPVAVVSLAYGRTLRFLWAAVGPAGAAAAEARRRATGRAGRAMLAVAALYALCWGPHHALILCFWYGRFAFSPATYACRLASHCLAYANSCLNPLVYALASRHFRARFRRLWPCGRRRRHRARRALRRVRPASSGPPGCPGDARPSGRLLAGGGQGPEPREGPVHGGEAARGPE

Major prion protein = Major prion protein (Homo sapiens, UniProt P04156); assay type: functional, cell-based
Beta-galactosidase = Beta-galactosidase (Escherichia coli, UniProt Q8VNN2); test: Dose response counterscreen for EBI2 assay utilizing the enzyme, b-galactosidase.; assay type: functional
[6] = molecular target: T2, Methionyl-tRNA synthetase, putative (Trypanosoma brucei brucei, UniProt Q38C91); assay type: functional, Trypanosoma brucei brucei strain 927/4 GUTat10.1
T2 sequence (Q38C91 whole entry): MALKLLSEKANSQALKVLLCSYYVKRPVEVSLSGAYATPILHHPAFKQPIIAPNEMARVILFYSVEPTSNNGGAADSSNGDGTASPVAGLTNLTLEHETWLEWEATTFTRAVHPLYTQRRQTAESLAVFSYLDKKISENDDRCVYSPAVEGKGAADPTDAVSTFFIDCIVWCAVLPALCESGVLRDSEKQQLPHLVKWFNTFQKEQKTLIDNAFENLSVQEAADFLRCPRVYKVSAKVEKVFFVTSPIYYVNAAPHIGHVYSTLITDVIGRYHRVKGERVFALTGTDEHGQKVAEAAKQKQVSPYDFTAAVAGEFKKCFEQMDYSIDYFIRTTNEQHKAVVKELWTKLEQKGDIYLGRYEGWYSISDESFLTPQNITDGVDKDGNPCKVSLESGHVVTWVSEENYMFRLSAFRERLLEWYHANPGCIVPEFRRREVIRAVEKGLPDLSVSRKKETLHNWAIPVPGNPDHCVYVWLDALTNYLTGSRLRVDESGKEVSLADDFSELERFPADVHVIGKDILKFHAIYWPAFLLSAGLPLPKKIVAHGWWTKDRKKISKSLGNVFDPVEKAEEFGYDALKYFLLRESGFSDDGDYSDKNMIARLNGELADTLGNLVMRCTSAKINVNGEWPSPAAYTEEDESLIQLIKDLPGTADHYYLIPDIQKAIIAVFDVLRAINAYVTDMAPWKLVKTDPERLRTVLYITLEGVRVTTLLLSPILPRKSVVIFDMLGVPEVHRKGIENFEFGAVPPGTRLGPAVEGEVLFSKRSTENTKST

[7] = Counterscreen for inhibitors of Trypanosoma brucei methionyl tRNA synthetase (MetRS): Luminescence-based cell-based high throughput dose response assay to identify compounds that are cytotoxic to Jurkat human T lymphocyte cells.; assay type: functional
[8] = molecular target: Photoreceptor-specific nuclear receptor (Homo sapiens, UniProt Q9Y5X4); assay type: functional, cell-based;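 note: CHO-S cells with Gal4-NCOR and VP16-NR2E3 two-hybrid luciferase reporter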
[9] = molecular target: T2, Methionyl-tRNA synthetase, putative; assay type: functional, Trypanosoma brucei brucei strain 927/4 GUTat10.1; remark: listed apart in the source
Paired box protein Pax-8 = Paired box protein Pax-8 (Homo sapiens, UniProt Q06710); test: PAX8 transcriptional activity inhibition in RMG-I – RMG-I cells, luciferase, cherry-pick, dose response (AID 687027); assay type: functional, cell-based;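 note: luciferase reporter driven by Pax8 target thyroperoxidase promoter measured by SteadyGlo luminescence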
[10] = IGROV1 cell killing – plate reader, dry powder samples, PAX8 inhibitor project, dose response (AID 743043); assay type: functional, cell-based; settings: IGROV-1
[11] = OVCAR8 cell viability loss – plate reader, dry powder samples, PAX8 project, dose response (AID 743197); assay type: functional, cell-based; settings: OVCAR-8
[12] = molecular target: T3, Nuclear receptor subfamily 0 group B member 1 (Homo sapiens, UniProt P51843); assay type: functional, cell-based;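 note: HEK293T cells transfected with SF-1 and DAX-1 plus StAR promoter luciferase reporter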
T3 sequence (P51843 whole entry): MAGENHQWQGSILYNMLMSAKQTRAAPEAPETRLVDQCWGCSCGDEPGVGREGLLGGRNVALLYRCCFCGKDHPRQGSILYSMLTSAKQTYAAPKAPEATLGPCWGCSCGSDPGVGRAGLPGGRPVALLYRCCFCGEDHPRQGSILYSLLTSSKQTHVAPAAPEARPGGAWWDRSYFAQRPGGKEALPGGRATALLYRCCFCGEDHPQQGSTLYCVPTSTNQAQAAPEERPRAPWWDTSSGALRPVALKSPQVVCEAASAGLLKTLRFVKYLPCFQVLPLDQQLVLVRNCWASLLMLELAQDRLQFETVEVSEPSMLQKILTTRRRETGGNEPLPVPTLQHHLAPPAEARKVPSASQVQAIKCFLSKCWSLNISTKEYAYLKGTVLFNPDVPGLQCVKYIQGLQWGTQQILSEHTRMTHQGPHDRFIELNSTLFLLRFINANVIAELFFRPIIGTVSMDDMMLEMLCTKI

cells [13] = assay type: functional, cell-based
fMet-Leu-Phe receptor = fMet-Leu-Phe receptor (Homo sapiens, UniProt P21462); test: formyl peptide receptor binders – dose response (AID 519); assay type: functional
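Throughout, for EC50: target is galanin receptor GalR3 read with a cAMP biosensor in HEK293 cells.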

Q: With `CCOc1ccc(-c2[nH]ncc2-c2ccc(Cl)cc2)c(O)c1` as the compound, how does the CC50 [1] read?
A: > 40 µM (active)

Q: And the IC50 [2]?
A: 23.7 µM (inactive)

Q: What about the IC50 [3] of the same compound?
A: > 69.5 µM (inactive)

Q: Which IC50 (Protein Wnt-3a) does the source give for `CCC(C)Nc1cc(NC(=O)c2ccccc2)ncn1` (stereo not drawn) here?
A: > 21.8 µM (inactive)

Q: For `Cc1cc(Br)cn2c(Cc3cccc(Cl)c3)c(-c3ccco3)nc12`, which IC50 (cells [4]) is on record?
A: 66.2 µM (inactive)

Q: What about the EC50 (cells [5]) of the same compound?
A: > 29.9 µM (inactive)

Q: And the IC50 (Galanin receptor type 3)?
A: 8.41 µM (active)

Q: What about the IC50 (Major prion protein) of the same compound?
A: 10.5 µM (inactive)

Q: With `N#Cc1ccc(-c2nc3ccc(Br)cn3c2Cc2cccc(F)c2)cc1` as the compound, how does the IC50 (cells [4]) read?
A: > 138 µM (inactive)

Q: What about the IC50 (Major prion protein) of the same compound?
A: 2.98 µM (active)

Q: Which IC50 (Beta-galactosidase) does the source give for `Cc1ccc(NC2=CC(=O)CC(c3ccc(Cl)cc3)C2)cc1` (stereo not drawn) here?
A: > 80 µM (inactive)

Q: What does the source list for `COc1cccc(NC(=O)CSc2nc3cc(Br)c[nH]c-3n2)c1`?
A: IC50 [6]: 2 µM (active); IC50 [7]: 83.3 µM (inactive); IC50 [8]: 0.377 µM (active); IC50 [9]: 4.03 µM (active)

Q: What does the source list for `C[C@@H]1CN([C@@H](C)CO)C(=O)c2cc(NC(=O)Cc3ccccc3)ccc2O[C@@H](C)CCCCO[C@@H]1CN(C)Cc1ccc(C(F)(F)F)cc1`?
A: AC50 (Paired box protein Pax-8): 7.23 µM (active); AC50 [10]: 31.7 µM (active); AC50 [11]: > 70 µM (inactive)

Q: Which IC50 (Protein Wnt-3a) does the source give for `CCN(CC)c1cc(NC(=O)c2ccccc2)nc(C)n1` here?
A: > 21.8 µM (inactive)

Q: With `C/C(=N\NC(=O)c1ccccc1O)c1cccs1` as the compound, how does the IC50 [12] read?
A: > 67.5 µM (inactive)

Q: And the IC50 (cells [13])?
A: > 67.5 µM (inactive)

Q: Which IC50 (Beta-galactosidase) does the source give for `COc1ccccc1N1CCN(C(=O)c2cc(-c3ccc(F)cc3)[nH]c2C)CC1` here?
A: > 80 µM (inactive)

Q: For `O=C(C1=C(O)C(=O)N(Cc2ccccc2)C1c1cccnc1)c1ccco1` (stereo not drawn), which Ki (fMet-Leu-Phe receptor) is on record?
A: 30.5 µM (inactive)
